Test results published in patent US12234248B2, “Co-crystal compounds comprising lithium ions and isonicotinamide” (UNIVERSITY OF LIMERICK, priority 2017, dated 2025).
Values joined by “and” are separate entries in the source; they are usually repeats but may differ in a detail not shown here. Equal entries are not always repeated. Blank lines part the entries; values can stand above or below the compound they belong to.

Legend:
[1] = Stability of crystalline material under warm humid conditions (40° C., 75% relative humidity), PXRD before and after; type: physicochemical; details: for Stable?: stored at 40° C., 75% relative humidity, stable = retained crystal form for at least two weeks by PXRD; for PXRD pattern after storage compared with initial pattern: after 2 months at 75% relative humidity and 40° C.
Protocol: The stability of these compounds under warm humid conditions was assessed as follows:
The crystalline material was stored at 40° C. in an atmosphere of 75% relative humidity.
Compounds were classed as stable if they retained their crystal form for at least two weeks as verified by examination of PXRD patterns collected before and after exposure to humidity.
It can be seen that the pattern obtained after 2 months at 75% relative humidity and 40° C. (upper trace) in this case is different.

[2] = Bioavailability in vivo in rats: lithium in plasma and brain by ICP-OES after oral administration; details: for Cmax (brain) / Tmax (brain) / t½_Lambda_z (brain) / AUClast (brain) / Relative Brain BA (UL crystal forms, oral vs Li2CO3, oral): rat brain; for Cmax (brain) / Tmax (brain) / t½_Lambda_z (brain) / AUClast (brain) / Cmax (plasma) / Tmax (plasma) / t½_Lambda_z (plasma) / BRAIN CONC., Time(h) 2.00 / PLASMA CONC, Time(h) 2.00 / BRAIN CONC., Time(h) 24.00 / PLASMA CONC, Time(h) 24.00 / BRAIN CONC., Time(h) 48.00 / PLASMA CONC, Time(h) 48.00 / BRAIN CONC., Time(h) 72.00 / PLASMA CONC, Time(h) 72.00: 4 mEq/kg lithium oral; for Cmax (brain) / Tmax (brain) / Cmax (plasma) / Tmax (plasma): non-compartmental; for t½_Lambda_z (brain) / t½_Lambda_z (plasma): terminal phase; for AUClast (brain): time 0 to last quantifiable point; for Relative Brain BA (UL crystal forms, oral vs Li2CO3, oral) / Relative Plasma BA (UL crystal forms, oral vs Li2CO3 oral): relative to lithium carbonate; for Cmax (plasma) / Tmax (plasma) / t½_Lambda_z (plasma) / Relative Plasma BA (UL crystal forms, oral vs Li2CO3 oral): rat plasma; for BRAIN CONC., Time(h) 2.00 / PLASMA CONC, Time(h) 2.00 / BRAIN CONC., Time(h) 24.00 / PLASMA CONC, Time(h) 24.00 / BRAIN CONC., Time(h) 48.00 / PLASMA CONC, Time(h) 48.00 / BRAIN CONC., Time(h) 72.00 / PLASMA CONC, Time(h) 72.00: rat, individual rats (three per time); for BRAIN CONC., Time(h) 2.00 / PLASMA CONC, Time(h) 2.00: 2 h; for BRAIN CONC., Time(h) 2.00 / BRAIN CONC., Time(h) 24.00 / BRAIN CONC., Time(h) 48.00 / BRAIN CONC., Time(h) 72.00: lithium in brain; for PLASMA CONC, Time(h) 2.00 / PLASMA CONC, Time(h) 24.00 / PLASMA CONC, Time(h) 48.00 / PLASMA CONC, Time(h) 72.00: lithium in plasma; for BRAIN CONC., Time(h) 24.00 / PLASMA CONC, Time(h) 24.00: 24 h; for BRAIN CONC., Time(h) 48.00 / PLASMA CONC, Time(h) 48.00: 48 h; for BRAIN CONC., Time(h) 72.00 / PLASMA CONC, Time(h) 72.00: 72 h
Protocol: Male Sprague-Dawley rats, weighing 240-290 g, were treated through gastric intubation with formulations of lithium and compared with lithium carbonate as a reference. For each formulation a group of 12 rats was treated. 4 mEq/kg of lithium were orally administered, after suspension in 2 mL of corn seeds oil (“Olio Cuore”).
Four intervals' post-administration time (2, 24, 48 and 72 hours) were considered and three rats for each of them, employing the protocol used by Zaworotko and coworkers (Smith et al., Mol. Pharmaceutics 2013, 10, 4728-4738). At each time interval blood samples were collected through intra-cardiac […], these were treated with 50 μL of sodium heparin and centrifuged for 10 min at 1600 rpm. Plasma samples of approximately […] each were thus obtained. The brain was explanted in toto with perfusion with phosphate buffered saline (PBS) in order to preserve it in a viable state. The plasma and brain samples were immediately frozen at a temperature of −80° C., after measuring the weight of the brains.
In order to determine the concentration of the lithium by means of the ICP-OES (Inductively Coupled Plasma Optical Emission Spectometry) analysis, plasma and brain samples were purified and mineralized, respectively to obtain solutions suitable for analysis.
A 0.5 mL aliquot was taken from each sample, to which were added equal amounts of MilliQ water and concentrated nitric acid, in order to bring the lithium ion in solution in the form of LiNO3 and to obtain the precipitation of the proteins. At this point, each sample was sonicated for 10 min in an ultrasonic bath and diluted to a volume of 5.0 mL.
All samples were subjected to centrifugation for a period of 40 min, at a rotational speed of 6000 rpm, to obtain complete plasma proteins/solution separation. At the end supernatant liquid containing lithium was diluted to a final volume of 15 mL by adding MilliQ water. The obtained solutions were stored at a temperature of 4° C. until analysis.
The purpose of this phase was to obtain liquid samples, suitable to ICP-OES analysis, containing lithium in solution, starting from the solid organic tissue of the brain. The mineralization process allows the complete degradation of organic substances until the total transformation into simple inorganic substances.
The first operation performed was that the drying of the fabric, obtained through the use of a digester open PerkinElmer SPB 100-12: each sample of brain has been inserted in special containers Digitube™ 100 mL and maintained at a temperature of 80° C. for 120 min.
The second step involved the mineralization true and proper brain: each sample were added to 10 mL of concentrated nitric acid and 1.0 mL of hydrogen peroxide, then the system was brought to a temperature of 120° C. for 120 min. until the complete mineralization. With this procedure you get the desired biological degradation of organic compounds and the consequent passage of lithium in solution. The solutions thus obtained were collected, brought to a final volume of 20 mL with MilliQ water and preserved at a temperature of 4° C. until time of analysis.
In order to obtain the determination of lithium ion concentrations in the samples previously prepared, optical emission spectrometry inductively coupled plasma ICP-OES was used (PerkinElmer Optima 8000 spectrometer).
The analysis was conducted at the fixed wavelength of lithium (λ=670.784 nm) and the intensity of the radiation emitted by each sample was measured and compared standard solutions.
Plasma and brain concentration data were processed using a non-compartmental approach using WinNonlin® software (Pharsight Corporation, USA) and Microsoft Excel XP (Microsoft Corporation, […]).

Stable? [1]: Yes
Compound: O=C([O-])CCC(=O)[O-].[Li+].[Li+] [Compound 16, [Li2 (succinate)]n]

Compound: COc1cccc(C(=O)[O-])c1.O=C(O)[C@@H]1CCCN1.[Li+] [Compound 6, [Li(3-methoxybenzoate)(L-proline)]n]
Stable? [1]: Yes | Cmax (brain) [2]: 4.3733 µg/g | Tmax (brain) [2]: 24 h | t½_Lambda_z (brain) [2]: 15.3888 h | AUClast (brain) [2]: 172.7467 mg·h/g | Relative Brain BA (UL crystal forms, oral vs Li2CO3, oral) [2]: 74.33% | Cmax (plasma) [2]: 6383.3 ng/mL | Tmax (plasma) [2]: 24 h | t½_Lambda_z (plasma) [2]: 10.4363 h | Relative Plasma BA (UL crystal forms, oral vs Li2CO3 oral) [2]: 74.07% | BRAIN CONC., Time(h) 2.00 [2]: 0.64 µg/g and 0.44 µg/g and 0.73 µg/g | PLASMA CONC, Time(h) 2.00 [2]: 3030 ng/mL and 1430 ng/mL and 3380 ng/mL | BRAIN CONC., Time(h) 24.00 [2]: 4.54 µg/g and 4.21 µg/g and 4.37 µg/g | PLASMA CONC, Time(h) 24.00 [2]: 5950 ng/mL and 4760 ng/mL and 8440 ng/mL | BRAIN CONC., Time(h) 48.00 [2]: 2.84 µg/g and 2.06 µg/g and 2.46 µg/g | PLASMA CONC, Time(h) 48.00 [2]: 670 ng/mL and 740 ng/mL and 870 ng/mL | BRAIN CONC., Time(h) 72.00 [2]: 0.59 µg/g and 0.49 µg/g and 0.43 µg/g | PLASMA CONC, Time(h) 72.00 [2]: 230 ng/mL and 310 ng/mL and 250 ng/mL

Stable? [1]: No
Compound: {[Li(p-toluenesulfonate)]•H30}n [Compound 31]

Compound: NCCC(=O)O.NCCC(=O)O.O.O=C([O-])C(=O)[O-].[Li+].[Li+] [Compound 25, [Li2(oxalate)(beta-alanine)2(water)]n]
Stable? [1]: No

Stable? [1]: No
Compound: CNCC(=O)O.O.O=C([O-])c1cccnc1.[Li+] [Compound 9, [Li(nicotinate)(sarcosine)(water)]n]

Stable? [1]: No
Compound: NC(=O)c1ccncc1.O.O=C([O-])/C=C\C(=O)O.[Li+] [Compound 22, [Li(maleate)(isonicotinamide) (water)]n]

Stable? [1]: Yes
Compound: [Li2 (fumarate)]n [Compound 15]

Stable? [1]: No
Compound: [Li(camphorsulfonate)(water)2] [Compound 29]

Stable? [1]: No
Compound: CC1(C)C2CCC1(CS(=O)(=O)[O-])C(=O)C2.CNCC(=O)O.O.O.[Li+] (stereo not shown) [Compound 30, [Li(camphorsulfonate)(sarcosine)(water)2]]

Compound: O=C(O)C(=O)O.O=C(O)C(=O)O.O=C([O-])C(=O)O.[Li+].c1c[nH]cn1.c1c[nH]cn1 [Compound 11, [(imidazolium)2^+(Li(hydogen oxalate)(oxalate))^−(oxalic acid)]]
PXRD pattern after storage compared with initial pattern [1]: different | Stable? [1]: No

Stable? [1]: Yes
Compound: [Li2 (oxalate)]n [Compound 17]

Compound: COc1ccccc1C(=O)[O-].O=C(O)[C@@H]1CCCN1.[Li+] [Compound 1, [Li(2-methoxybenzoate)(L-proline)]n]
PXRD pattern after storage compared with initial pattern [1]: substantially identical | Stable? [1]: Yes | Cmax (brain) [2]: 3.5067 µg/g | Tmax (brain) [2]: 24 h | t½_Lambda_z (brain) [2]: 18.9045 h | AUClast (brain) [2]: 172.2533 mg·h/g | Relative Brain BA (UL crystal forms, oral vs Li2CO3, oral) [2]: 74.12% | Cmax (plasma) [2]: 4120 ng/mL | Tmax (plasma) [2]: 24 h | t½_Lambda_z (plasma) [2]: 12.9141 h | Relative Plasma BA (UL crystal forms, oral vs Li2CO3 oral) [2]: 58.42% | BRAIN CONC., Time(h) 2.00 [2]: 0.96 µg/g and 0.71 µg/g and 0.68 µg/g | PLASMA CONC, Time(h) 2.00 [2]: 3430 ng/mL and 1780 ng/mL and 2310 ng/mL | BRAIN CONC., Time(h) 24.00 [2]: 3.64 µg/g and 4.28 µg/g and 2.60 µg/g | PLASMA CONC, Time(h) 24.00 [2]: 3850 ng/mL and 6010 ng/mL and 2500 ng/mL | BRAIN CONC., Time(h) 48.00 [2]: 2.81 µg/g and 4.50 µg/g and 2.06 µg/g | PLASMA CONC, Time(h) 48.00 [2]: 970 ng/mL and 1780 ng/mL and 850 ng/mL | BRAIN CONC., Time(h) 72.00 [2]: 0.62 µg/g and 0.68 µg/g and 0.51 µg/g | PLASMA CONC, Time(h) 72.00 [2]: 230 ng/mL and 400 ng/mL and 310 ng/mL

Stable? [1]: No
Compound: CC1(C)C2CCC1(CS(=O)(=O)[O-])C(=O)C2.CC1(C)C2CCC1(CS(=O)(=O)[O-])C(=O)C2.NC(N)=O.NC(N)=O.O.O.[Li+].[Li+] (stereo not shown) [Compound 28, [Li2(camphorsulphonate)2(urea)2 (water)2]]
